Molecular target: NA of influenza B clinical isolates (Influenza B virus, UniProt A0A1X9RX69)
Type: biochemical

CCC(CC)[C@H](NC(C)=O)[C@@H]1[C@H](O)[C@@H](C(=O)O)C[C@H]1N=C(N)N [Peramivir, peramivir]
IC50: 0.47 ± 0.4 nM

Source: article PMC6237300, “Influenza B viruses circulated during last 5 years in Mongolia” (PLoS ONE, 2018)
